Values quoted from earlier work, collected in paper PMC3532212 (PLoS ONE, 2012).

Columns and labels:
anesthetized guinea pigs = test system: anesthetized guinea pigs; parameters: method as in PMID 15642767; conditions: i.v. bolus, highest tested dose 0.03 mg/kg/d; cited from earlier work
Wistar rats = test system: Wistar rats; parameters: method as in PMID 17006328; conditions: cited from earlier work
disease-relevant model = test system: disease-relevant model; parameters: method as in PMID 15642767; conditions: cited from earlier work
mice = test system: mice; parameters: method as in PMID 14747617; conditions: wild type mice; cited from earlier work
S1P1 receptor = test system: S1P1 receptor; parameters: method as in PMID 15975516; conditions: cited from earlier work
[1] = test system: FTY720-induced bradycardia; parameters: method as in PMID 20097776; conditions: in vivo; cited from earlier work

NC(CO)(CO)CCc1ccc(Sc2cccc(OCc3ccccc3)c2)cc1Cl [KRP-203]
effect on heart rate (anesthetized guinea pigs): no effect on heart rate | effect on heart rate (Wistar rats; 0.03 mg/kg): no effect on heart rate | acute bradycardia, heart rate below baseline (Wistar rats; 0.1 and 0.3 mg/kg): ~150 beats/min | efficacious dose in a disease-relevant model (disease-relevant model): 0.1 to 1.0 mg/kg/day

CCCCCCCCCCCCC/C=C/[C@@H](O)[C@@H](N)COP(=O)(O)O [S1P, Sphingosine-1-phospate]
effect on heart rate (mice): reductions in heart rate

FC(F)(F)c1cccc(-c2noc(-c3cc(-c4ccccc4)c(C(F)(F)F)s3)n2)c1 [SEW2871]
S1P1 receptor internalization (S1P1 receptor): elicit S1P1 receptor internalization

CC(C)(C)C(=O)C(=Nc1ccc(Cl)cc1)NNc1ccc(Cl)cc1 [TY-52156]
effect on FTY720-induced bradycardia [1]: partially inhibit
